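Protocol summary: plate cells (96-well), add compound at 5 concentrations, incubate 48 h, interpolate endpoints linearly. At the GI50, growth is halved.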 Calls of active or inactive are those of the source. No stated cut-off is given here; in the data, active = GI50 up to about 1.1 µM and inactive = higher.
Columns and labels:
Assay in all cases: NCI tumour cell line growth inhibition, 48 h
[1] = tested on: HOP-92
[2] = tested on: SR
[3] = tested on: RXF 393
[4] = tested on: SW-620
[5] = tested on: HOP-62
[6] = tested on: OVCAR-4
[7] = tested on: RPMI-8226
[8] = tested on: 786-0
[9] = tested on: HCC 2998
[10] = tested on: DU-145
[11] = tested on: NCI-H23
[12] = tested on: MCF7
[13] = tested on: EKVX
[14] = tested on: SK-MEL-2
[15] = tested on: SNB-75
[16] = tested on: IGROV-1
[17] = tested on: M14
[18] = tested on: ACHN
[19] = tested on: NCI-H226
[20] = tested on: OVCAR-5

Compound | GI50 [1] | GI50 [2] | GI50 [3] | GI50 [4] | GI50 [5] | GI50 [6] | GI50 [7] | GI50 [8] | GI50 [9] | GI50 [10] | GI50 [11] | GI50 [12] | GI50 [13] | GI50 [14] | GI50 [15] | GI50 [16] | GI50 [17] | GI50 [18] | GI50 [19] | GI50 [20]
CC(=O)Nc1ccc(-c2nc3ccccc3s2)cc1C | > 100 µM (inactive) | 27.7 µM (inactive) | 44.7 µM (inactive) | > 100 µM (inactive) | 40.6 µM (inactive) | 42.5 µM (inactive) | 55.2 µM (inactive) | 52.6 µM (inactive) | 42.9 µM (inactive) | 22.2 µM (inactive) | 75.5 µM (inactive) | 33.5 µM (inactive) | 25.1 µM (inactive) | 37.1 µM (inactive) | 38.5 µM (inactive) | 38.6 µM (inactive) | 68.7 µM (inactive) | 44.4 µM (inactive) | 26.9 µM (inactive) | –
CC1=NN(c2nc(N)nc(COc3ccc(N)cc3)n2)C(C)(C)C1 | > 100 µM (inactive) | > 100 µM (inactive) | > 100 µM (inactive) | > 100 µM (inactive) | > 100 µM (inactive) | > 100 µM (inactive) | > 100 µM (inactive) | > 100 µM (inactive) | > 100 µM (inactive) | > 100 µM (inactive) | > 100 µM (inactive) | > 100 µM (inactive) | > 100 µM (inactive) | > 100 µM (inactive) | > 100 µM (inactive) | > 100 µM (inactive) | > 100 µM (inactive) | > 100 µM (inactive) | > 100 µM (inactive) | –
C/N=C(\N)N/N=C(\C)c1ccc2oc3ccc(/C(C)=N/N/C(N)=N/C)cc3c2c1 | 2.07 µM (inactive) | 1.51 µM (inactive) | – | 2.22 µM (inactive) | 1.54 µM (inactive) | 3.8 µM (inactive) | 2.38 µM (inactive) | 2.86 µM (inactive) | 2 µM (inactive) | 2.35 µM (inactive) | 2.39 µM (inactive) | 1.05 µM (active) | 4.24 µM (inactive) | 2 µM (inactive) | – | 2.24 µM (inactive) | 3.24 µM (inactive) | 5.45 µM (inactive) | 2.08 µM (inactive) | 9.35 µM (inactive)
Cc1nc(Cc2n[nH]c(C)n2)n[nH]1 | > 100 µM (inactive) | > 100 µM (inactive) | > 100 µM (inactive) | > 100 µM (inactive) | > 100 µM (inactive) | > 100 µM (inactive) | > 100 µM (inactive) | > 100 µM (inactive) | > 100 µM (inactive) | > 100 µM (inactive) | > 100 µM (inactive) | > 100 µM (inactive) | > 100 µM (inactive) | > 100 µM (inactive) | > 100 µM (inactive) | > 100 µM (inactive) | > 100 µM (inactive) | > 100 µM (inactive) | – | > 100 µM (inactive)
N/C(=N\N=C\c1nc2ccccc2o1)c1cnccn1 | > 100 µM (inactive) | > 100 µM (inactive) | 49.5 µM (inactive) | > 100 µM (inactive) | 43.2 µM (inactive) | > 100 µM (inactive) | > 100 µM (inactive) | 66.7 µM (inactive) | – | > 100 µM (inactive) | 83.8 µM (inactive) | > 100 µM (inactive) | > 100 µM (inactive) | 80.7 µM (inactive) | 16.4 µM (inactive) | > 100 µM (inactive) | > 100 µM (inactive) | 70.8 µM (inactive) | > 100 µM (inactive) | > 100 µM (inactive)
COc1cc(C(SCc2ccccc2)SCc2ccccc2)ccc1O | > 10 µM (inactive) | > 10 µM (inactive) | 9.4 µM (inactive) | > 10 µM (inactive) | > 10 µM (inactive) | – | > 10 µM (inactive) | > 10 µM (inactive) | > 10 µM (inactive) | > 10 µM (inactive) | – | > 10 µM (inactive) | > 10 µM (inactive) | > 10 µM (inactive) | > 10 µM (inactive) | > 10 µM (inactive) | > 10 µM (inactive) | > 10 µM (inactive) | > 10 µM (inactive) | –
COC(=O)C1C(=O)C=CN([C@H](C)c2ccccc2)[C@@H]1Cc1ccc(OC)c(OCc2ccccc2)c1I (stereo partly specified) | 3.3 µM (inactive) | 3.14 µM (inactive) | 11.8 µM (inactive) | 27.7 µM (inactive) | 20.4 µM (inactive) | 8.83 µM (inactive) | 14.9 µM (inactive) | 16.4 µM (inactive) | 14.3 µM (inactive) | 18.2 µM (inactive) | 17 µM (inactive) | 17.6 µM (inactive) | 23.6 µM (inactive) | 18.9 µM (inactive) | – | 10.2 µM (inactive) | 14.5 µM (inactive) | 23.2 µM (inactive) | 15.8 µM (inactive) | 27.4 µM (inactive)
CCCCCCCCCCN(CCCCCCCCCC)C(=O)COc1c2cc(C(C)(C)C)cc1Cc1cc(C(C)(C)C)cc(c1OCC(=O)N(CCCCCCCCCC)CCCCCCCCCC)Cc1cc(C(C)(C)C)cc(c1OCC(=O)N(CCCCCCCCCC)CCCCCCCCCC)Cc1cc(C(C)(C)C)cc(c1OCC(=O)N(CCCCCCCCCC)CCCCCCCCCC)C2 | < 0.01 µM (active) | 2.96 µM (inactive) | 9.68 µM (inactive) | 1.93 µM (inactive) | 16.1 µM (inactive) | 10.4 µM (inactive) | – | 11.2 µM (inactive) | 8.85 µM (inactive) | 17.8 µM (inactive) | 1.75 µM (inactive) | 3.59 µM (inactive) | 12.1 µM (inactive) | 7.93 µM (inactive) | 18.2 µM (inactive) | 12.4 µM (inactive) | 2.92 µM (inactive) | 14.9 µM (inactive) | 19.3 µM (inactive) | 13.3 µM (inactive)
Cc1c(C)c2c(c(N)c1C#N)C(=O)N(CCN1CCNCC1)C2=O | 25.2 µM (inactive) | 25.6 µM (inactive) | 22.4 µM (inactive) | 31.6 µM (inactive) | – | 40.2 µM (inactive) | 38 µM (inactive) | 25.4 µM (inactive) | 31.6 µM (inactive) | 29.4 µM (inactive) | – | 34.8 µM (inactive) | 39 µM (inactive) | 35.9 µM (inactive) | 26.2 µM (inactive) | 34.7 µM (inactive) | 33.8 µM (inactive) | 25.6 µM (inactive) | 29.1 µM (inactive) | 31.1 µM (inactive)
Cc1n[nH]c(=O)n1/N=C/c1ccc([N+](=O)[O-])cc1 | 55.3 µM (inactive) | > 100 µM (inactive) | 61.2 µM (inactive) | > 100 µM (inactive) | > 100 µM (inactive) | > 100 µM (inactive) | > 100 µM (inactive) | > 100 µM (inactive) | > 100 µM (inactive) | > 100 µM (inactive) | > 100 µM (inactive) | > 100 µM (inactive) | 60.7 µM (inactive) | > 100 µM (inactive) | 41.1 µM (inactive) | – | – | > 100 µM (inactive) | > 100 µM (inactive) | > 100 µM (inactive)
CSc1cc(Cl)c(C(=O)Nc2ccccc2)cc1S(=O)(=O)n1ccnc1O | > 100 µM (inactive) | > 100 µM (inactive) | > 100 µM (inactive) | > 100 µM (inactive) | > 100 µM (inactive) | > 100 µM (inactive) | > 100 µM (inactive) | > 100 µM (inactive) | > 100 µM (inactive) | > 100 µM (inactive) | > 100 µM (inactive) | > 100 µM (inactive) | > 100 µM (inactive) | > 100 µM (inactive) | > 100 µM (inactive) | > 100 µM (inactive) | > 100 µM (inactive) | > 100 µM (inactive) | – | > 100 µM (inactive)
O=C1CC(c2cccc([N+](=O)[O-])c2)C2(C(=O)NC(=S)NC2=O)C(c2cccc([N+](=O)[O-])c2)C1 (stereo unspecified) | 28.2 µM (inactive) | 49.4 µM (inactive) | – | 50.7 µM (inactive) | 30.3 µM (inactive) | 37.4 µM (inactive) | 59.7 µM (inactive) | 34.8 µM (inactive) | 20.2 µM (inactive) | 34.1 µM (inactive) | 29.2 µM (inactive) | 26.8 µM (inactive) | 20.4 µM (inactive) | 35.9 µM (inactive) | 43.4 µM (inactive) | 31.3 µM (inactive) | 21.9 µM (inactive) | 72.1 µM (inactive) | 21 µM (inactive) | 39.9 µM (inactive)
CCOC(=O)Cc1nnc2c(-c3ccccc3)nc3ccccc3n12 | 41.6 µM (inactive) | > 100 µM (inactive) | 20.6 µM (inactive) | > 100 µM (inactive) | 14.4 µM (inactive) | > 100 µM (inactive) | > 100 µM (inactive) | > 100 µM (inactive) | 15.7 µM (inactive) | 33 µM (inactive) | 43.3 µM (inactive) | 85.3 µM (inactive) | 27.9 µM (inactive) | 28.1 µM (inactive) | – | 85.7 µM (inactive) | > 100 µM (inactive) | 19.8 µM (inactive) | > 100 µM (inactive) | 63.5 µM (inactive)
Nc1cccc(-c2cc(O)c3cc4c(cc3n2)OCO4)c1 | 1.02 µM (active) | 0.191 µM (active) | 1.02 µM (active) | 0.519 µM (active) | 1.87 µM (inactive) | > 61.9 µM (inactive) | 6.35 µM (inactive) | 2.16 µM (inactive) | 1.83 µM (inactive) | 0.64 µM (active) | 2.86 µM (inactive) | 0.592 µM (active) | 3.27 µM (inactive) | 0.45 µM (active) | 0.0995 µM (active) | – | 0.993 µM (active) | 3.87 µM (inactive) | 1.85 µM (inactive) | > 100 µM (inactive)

— ChEMBL document CHEMBL1201862, “PubChem BioAssay data set” (2004)
